These results are taken from ChEMBL document CHEMBL4842380, “Enhanced Properties of a Benzimidazole Benzylpyrazole Lysine Demethylase Inhibitor: Mechanism-of-Action, Binding Site Analysis, and Activity in Cellular Models of Prostate Cancer” (J Med Chem, 2021).

Calls of active or inactive are those of the source. The calls are words filed in the database; no cut-off is given here.

Test [1] deals with T1, Lysine-specific demethylase 4E (Homo sapiens, UniProt B2RXH2).
T1 sequence (B2RXH2 whole entry): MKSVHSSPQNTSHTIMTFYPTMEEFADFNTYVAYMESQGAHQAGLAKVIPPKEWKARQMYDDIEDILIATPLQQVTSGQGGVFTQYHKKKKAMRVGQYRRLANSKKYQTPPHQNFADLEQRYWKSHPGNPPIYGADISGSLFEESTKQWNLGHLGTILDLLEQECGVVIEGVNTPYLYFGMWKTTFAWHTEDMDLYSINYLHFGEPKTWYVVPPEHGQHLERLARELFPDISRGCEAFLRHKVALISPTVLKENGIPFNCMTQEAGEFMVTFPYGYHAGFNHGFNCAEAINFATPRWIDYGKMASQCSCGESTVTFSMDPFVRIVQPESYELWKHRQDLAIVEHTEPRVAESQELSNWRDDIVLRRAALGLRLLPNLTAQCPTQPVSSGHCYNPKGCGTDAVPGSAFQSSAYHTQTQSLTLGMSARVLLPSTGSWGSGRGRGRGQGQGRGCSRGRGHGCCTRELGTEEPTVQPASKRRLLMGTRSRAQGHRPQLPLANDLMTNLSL
Kind of test: Inhibition of N-terminal His6-tagged KDM4E (1 to 337 residues) (unknown origin) expressed in Escherichia coli BL21 (DE3)-R3 preincubated for 10 mins followed by substrate addition by fluorescence based FDH-coupled assay.

In test [2] the test system is LNCaP. Kind of test: Inhibition of KDM4 in human LNCaP cells assessed as decrease in PSA gene expression at 100 uM incubated for 48 hrs by qPCR analysis. Type of test: cell-based. Background: In qPCR the cycle at which signal appears reflects the starting amount.
The nature of test [3]: Cytotoxicity against human LnCaP cells assessed as remaining cell viability after 48 hrs by alamar blue assay. Type of test: functional, Prostate cell. (Alamar Blue is a resazurin reagent that responds to reducing activity.)
The subject of test [4] is LNCaP. Kind of test: Inhibition of KDM4 in human LNCaP cells assessed as decrease in luciferase activity at 50 uM incubated for 48 hrs by luciferase based reporter gene assay. Type of test: cell-based. In general terms: A reporter such as luciferase makes a cellular process visible.
For test [5], the system named is DU-145. Kind of test: Inhibition of KDM4 in human DU-145 cells assessed as increase in H3K9me3 level at 25 uM incubated for 48 hrs by Nu-ELISA. Type of test: cell-based.
For test [6], the system named is LNCaP. Kind of test: Inhibition of KDM4 in human LNCaP cells assessed as increase in H3K9me3 level at 25 uM incubated for 48 hrs by Nu-ELISA. Type of test: cell-based.
The test system of test [7] is LNCaP. Kind of test: Cytotoxicity against human LnCaP cells assessed as growth inhibition after 48 hrs by alamar blue assay. In kind it is functional.
For test [8], the system named is LNCaP. Kind of test: Inhibition of KDM4 in human LNCaP cells assessed as decrease in luciferase activity at 25 uM incubated for 48 hrs by luciferase based reporter gene assay. In kind it is cell-based.
The test system of test [9] is LNCaP. Kind of test: Inhibition of KDM4 in human LNCaP cells assessed as decrease in PSA gene expression at 25 uM incubated for 48 hrs by qPCR analysis. In kind it is cell-based.
Test [10] in a line: Cytotoxicity against human prostate epithelial cells assessed as remaining cell viability after 48 hrs by alamar blue assay. In kind it is functional.
Test [11] concerns LNCaP. Kind of test: Inhibition of KDM4 in human LNCaP cells assessed as increase in H3K9me3 abundance at 25 uM incubated for 48 hrs by Western blot analysis. In kind it is cell-based.
The test system of test [12] is PC-3. Kind of test: Cytotoxicity against human PC-3 cells assessed as remaining cell viability after 48 hrs by alamar blue assay. In kind it is functional.
Test [13] concerns DU-145. Kind of test: Cytotoxicity against human DU-145 cells assessed as growth inhibition after 48 hrs by alamar blue assay. In kind it is functional.
Test [14] relates to PC-3. Kind of test: Cytotoxicity against human PC-3 cells assessed as growth inhibition after 48 hrs by alamar blue assay. Type of test: functional.
For test [15], the system named is LNCaP. Kind of test: Inhibition of KDM4 in human LNCaP cells assessed as decrease in PSA gene expression at 25 uM incubated for 48 hrs in presence of DHT by qPCR analysis. Type of test: cell-based.
The subject of test [16] is DU-145. Kind of test: Cytotoxicity against human DU-145 cells assessed as remaining cell viability after 48 hrs by alamar blue assay. In kind it is functional.
Test [17] has as its target T2, Lysine-specific demethylase 4E (Homo sapiens) (UniProt B2RXH2).
T2 sequence (whole entry): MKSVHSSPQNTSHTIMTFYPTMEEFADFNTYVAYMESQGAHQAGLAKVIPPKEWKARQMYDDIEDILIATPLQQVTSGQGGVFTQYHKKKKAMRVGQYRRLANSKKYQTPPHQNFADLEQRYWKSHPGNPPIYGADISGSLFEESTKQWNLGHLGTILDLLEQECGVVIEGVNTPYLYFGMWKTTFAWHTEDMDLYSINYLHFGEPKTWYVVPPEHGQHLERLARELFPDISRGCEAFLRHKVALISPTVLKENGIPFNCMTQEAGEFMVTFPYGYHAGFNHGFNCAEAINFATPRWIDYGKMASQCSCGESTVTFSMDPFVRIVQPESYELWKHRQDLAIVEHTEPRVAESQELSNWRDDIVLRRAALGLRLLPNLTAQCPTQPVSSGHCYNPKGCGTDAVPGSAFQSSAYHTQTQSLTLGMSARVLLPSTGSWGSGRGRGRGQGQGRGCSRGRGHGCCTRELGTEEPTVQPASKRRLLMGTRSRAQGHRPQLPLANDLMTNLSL
Kind of test: Inhibition of N-terminal His6-tagged KDM4E (1 to 337 residues) (unknown origin) expressed in Escherichia coli BL21 (DE3)-R3 at highest concentration preincubated for 10 mins followed by substrate addition by fluorescence based FDH-coupled assay.

In general, IC50 refers to the midpoint of a concentration-inhibition curve. Low values mean higher potency, high ones lower potency. In turn, `C=CCc1c(C)nn(-c2ccccn2)c1O` returned an IC50 in [1] of 191 µM.
In the case of `Cc1nn(-c2nc3ccccc3[nH]2)c(O)c1CCC(=O)O`, the IC50 in test [1] was found to be 274 µM.
In [1], `Cc1nn(-c2nc3ccccc3[nH]2)c(N)c1-c1ccccc1` returned an IC50 of 160 µM.
One may read the GI50 as the concentration giving 50% growth inhibition. Consider `CN(C)CCCNC(=O)c1ccc(-c2cc(O)c3ncccc3c2)cc1`, for which the inhibition result in test [2] was “inactive”. In addition, the Activity in test [3] turned out to be 1%. Besides, the inhibition result in [4], in test [5] and in [6] was “Active” in each case. The GI50 in test [7] turned out to be 53 µM.
Regarding `Cc1nn(-c2nc3ccccc3[nH]2)c(O)c1-c1ccccc1`, the inhibition entry in [8], in [9], in test [11], in [5], in test [15] and in [6] was “Active” in each case. Further, the Activity in test [3] is given as 1%; in test [10] it was 2%; in test [12], 27%; in test [16], 0%. Moreover, the values for the GI50 in test [13], in test [14] and in test [7] were 8 µM, more than 50 µM and 8 µM, respectively.
In test [1], `Cc1cc(N)n(-c2nc3ccccc3[nH]2)n1` showed an IC50 of 199 µM.
Regarding `Brc1cnn(-c2nc3ccccc3[nH]2)c1`, the inhibition result in [17] was “inactive”.
As for `Cc1nn(-c2nc3ccccc3[nH]2)c(O)c1CCC(=O)N(C)C`, half-maximal inhibition in [1] (IC50) was put at 16 µM. This counts as double-digit micromolar.
On the same count and under the same terms, under `Cc1ccc(-c2c(C)nn(-c3nc4ccccc4[nH]3)c2O)cc1` stands 27 µM; under `C#CCc1c(C)nn(-c2nc3ccccc3[nH]2)c1O`, 5 µM.
For `Cc1nn(-c2ccccn2)c(O)c1Cc1ccccc1`, in test [1], the IC50 turned out to be 57 µM. This IC50 is about 11-fold higher than that of the molecule before.
As to `CNC(=O)CCc1c(C)nn(-c2nc3ccccc3[nH]2)c1O`, the IC50 in [1] worked out at 41 µM. This IC50 and that of the molecule before are within 1.5-fold of each other.
In turn, `COC(=O)CCc1nn(-c2nc3ccccc3[nH]2)c(O)c1C` yielded an IC50 in test [1] of 106 µM.
Regarding `Cc1nn(-c2nc3ccccc3s2)c(O)c1-c1ccccc1`, half-maximal inhibition in [1] (IC50) was put at 35 µM.
`Cc1nn(-c2nc3ccccc3[nH]2)c(O)c1Cc1ccccc1`: the IC50 in test [1] stood at 27 µM.
